# Laboratory results from paper PMC6588697, “Lugdunin amplifies innate immune responses in the skin in synergy with host- and microbiota-derived factors” (Nature Communications, 2019).
# Where “and” joins values, the source holds several entries; their conditions need not be identical. Equal values may be shown once.
# Columns and labels:
# mouse skin = assay: Immunohistochemistry of mouse skin sections (LL-37, MIP-2, MPO); assay type: in vivo
# Experimental: For immunohistochemical stainings of mouse skin, […] tissue sections were de-paraffinized. For MPO staining, antigen retrieval was performed in EDTA buffer at pH 9 (Thermo Fisher Scientific) for 5 min, and for MIP-2 and LL-37, citrate buffer at pH 6 for 9 min was used. Antigen retrieval was performed in a pressure cooker before a slow cooling down of the samples in the buffer. Afterwards, tissue sections were washed in PBS and blocked in 5% donkey serum in PBS containing 0.05% Triton X-100 for 90 min. For MPO staining, tissue sections were subsequently incubated overnight at 4 °C in a humid chamber with a MPO-specific antibody (R&D Systems, Cat#AF3667) diluted 1:50 in a blocking buffer. For MIP-2 and LL-37 staining, tissue sections were first incubated with primary enhancer (Lab Vision™ UltraVision™ LP Detection System, Thermo Fisher Scientific) for 20 min at room temperature, washed, and then incubated with AP polymer (Lab Vision™ UltraVision™ LP Detection System, Thermo Fisher Scientific) for 30 min at room temperature in a humid chamber, followed by incubation with the primary antibodies MIP-2 (Thermo Scientific, Cat#701126, 1:10 in blocking buffer) and LL-37 (Novus Biologicals, Cat#NB100-98689, 1:200 in blocking buffer) overnight at 4 °C in a humid chamber. The next day, tissue sections were washed and incubated with a 1:250 dilution of alkaline phosphatase-coupled secondary antibody (Novus Biologicals) for 90 min in a humid chamber at room temperature. After washing in PBS, staining was performed by using the Lab Vision^TM liquid fast red substrate system (Thermo Fisher Scientific) according to the manufacturer’s instructions. After washing in water, hematoxylin–eosin staining (Agilent/Dako) was performed for 2 min. After another washing step in water, tissue sections were mounted with Kaiser’s glycerol gelatine (Merck).
# HNEpCs [1] = assay: CXCL8 expression in HNEpCs (qRT-PCR); assay type: cell-based, human; conditions: 5 h, two technical replicates
# Experimental: Quantitative reverse transcription-polymerase chain reaction (qRT-PCR) was performed in 10 µL reaction volume with SYBR^TM Green PCR Master Mix (Thermo Fisher) according to the manufacturer’s instructions using a LightCycler 96 (Roche Life Science). The initial denaturation step was at 95 °C for 5 min, followed by 40 cycles with 10 s each for the denaturation step at 95 °C, the annealing at individual temperature, and the elongation at 72 °C. Primer sequences and respective annealing temperatures are listed in Supplementary Table 1. […]
# 31 g+h+i: HNEpCs (b), HTEpCs (c) or PBMCs (d) were treated with increasing
# 32 concentrations of lugdunin (grey bars) or 100 ng/mL Pam2Cys or Pam3Cys (white
# 33 bars) as positive controls for 5 hours and subsequently expression of CXCL8 was
# 34 analyzed and normalized to actin. Black bar: medium control. Shown is one
# 35 representative experiment of three independent experiments with two technical
# 36 replicates +/-s.e.m. Significant differences to control treatments were analyzed by
# 37 ordinary one-way ANOVA followed by Dunnett’s multiple comparisons test (*P<0.05; […]
# HNEpCs [2] = assay: Cytokine release into HNEpC supernatant (LEGENDplex / ELISA); assay type: cell-based, human; conditions: 5 h, lugdunin 2 µM or Pam2Cys 100 ng/mL, two technical replicates, Fig 1f
substance,measurement,setting,value
Lugdunin,"MPO-positive cells in mouse skin sections (IHC, in words)","mouse skin; epicutaneous application, Fig 3e",recruitment of MPO-positive cells into the dermis
same,"LL-37 in mouse skin sections (IHC, in words)","mouse skin; epicutaneous application, Supp Fig 1",expression of LL-37 in keratinocytes was confirmed
same,"MIP-2 in mouse skin sections (IHC, in words)","mouse skin; epicutaneous treatment, Fig 2f",MIP-2 production by keratinocytes in the epidermis and the hair follicles
same,CXCL8 fold induction,"HNEpCs [1]; lugdunin 0.5 µM, sheet Supp Fig 1f",2.151 and 2.454
same,CXCL8 fold induction,HNEpCs [1]; lugdunin 1 µM,2.621
same,CXCL8 fold induction,HNEpCs [1]; lugdunin 2 µM,6.148 and 8.056
same,CXCL8 fold induction,HNEpCs [1]; lugdunin 3 µM,5.836 and 8.253
same,CXCL8 fold induction,HNEpCs [1]; lugdunin 5 µM,4.724 and 6.453
same,CXCL8 fold induction,HNEpCs [1]; lugdunin 10 µM,1.659 and 2.014
same,CXCL8 concentration in supernatant,HNEpCs [2],421.035 and 417.001
